In patent publication US4277472A, “3,6-Disubstituted-5,7-(lower alkano)-5,6,7,8-tetrahydropyrido(4,3-C)pyridazines; their intermediates, preparation, antihypertensive use and compositions” (Byk Gulden Lomberg Chemische Fabrik GmbH, priority 1978, dated 1981):

How the values were obtained:
[1] = system: blood pressure of genetically-hypertensive rats; assay: antihypertensive effect in awake genetically-hypertensive rats, oral, once daily on two consecutive days; type: in vivo, rat (Kyoto strain); conditions: for relation between percentage change of the blood pressure (BP) and the applied dose / Th. E. (therapeutic effectiveness) [Serial No. 3 = 1.0]: 24-hour value of the 2nd day; for relation between percentage change of the blood pressure (BP) and the applied dose: dose in μmole/kg; for Th. E. (therapeutic effectiveness) [Serial No. 3 = 1.0]: relative to hydralazine = 1.0
Description: In order to determine the anti-hypertensive effect, the compounds or mixtures are administered once daily by means of an oesophageal sound in the stated doses on two consecutive days to, in each case, 8 rats (Kyoto strain) with genetically-caused hypertension. The blood pressure was measured in each case 6 and 24 hours after administration of the substance.
(§1) The measurement of the systolic blood pressure is effected with the aid of an inflatable cuff which is placed around the tail root and on which cuff there are arranged distally annularly 3 piezo-electric crystals (at a distance of 120°) for registering the pulse waves. The determination of the blood pressure is effected through inflation of the cuff and graphic recording of the pulse amplitude [analogously to H. Friebel and E. Vreden, Arch. exper. Path. u. Pharmakol., 232, 419 (1958)]. The animals were kept in an ambience of, and the experiments were carried out at from 22° to 24° C. and from 50 to 60 percent atmospheric humidity. In order to accustom the animals to the measuring process, a measurement was effected on the animals in each case 2 to 3 times daily for three days. For this purpose, as in the subsequent experiments, the rats were put into tunnel-shaped wire cages; one narrow side of the cages is slidable, the other has an opening for taking the tail through. In order to ensure a better blood flow through the tail artery during the measurement, the tails are irradiated for from 5 to 10 minutes with a red light lamp (150 watts) (distance: animal-lamp=50 cm). The air temperature immediately ambient to the tail is from 30° to 33° C. The body of the animals is covered and thus protected from direct irradiation.
(§2) Table I reproduces for the representatives of the compounds according to the invention the percentage lowering of the blood pressure after oral administration in the rat and the lethal effect after oral administration in the mouse.
% Change of blood pressure (BP) in genetically-hypertensive rats after
single daily application per os on two consecutive days (N = 8/dose)

[2] = acute oral toxicity, LD50, mouse; set-up: species or system mouse (NMRI, female); conditions: in vivo, per os, single administration, mice, N = 5/dose, 14 days observation
Description: The toxicity investigations were carried out on female NMRI mice (body weight from 22 to 26 g). The animals (5 animals per dose) receive food and water ad libitum. Different doses of the substances are administered orally. The duration of observation is 14 days. The LD50, i.e. the dose at which 50 percent of the animals die, is determined graphically from the dose effect curve.
as §2
and toxicity (per os; LD50) in mice (N = 5/dose)

[3] = system: blood pressure of genetically-hypertensive rats; assay: lowering of blood pressure of genetically-hypertensive rats, oral, once daily on 10 consecutive days; type: in vivo, rat (Kyoto strain); conditions: 6 h after application
Description: as §1
In Table III there is represented the lowering of the blood pressure of genetically-hypertensive rats in the case of oral application of 3-hydrazino-5,7-propano-5,6,7,8-tetrahydro-6-pyrido[4,3-c]pyridazine carboxylic acid ethyl ester fumarate. In each case 8 animals received the stated dose once daily on 10 consecutive days.
Lowering of the blood pressure of genetically-hypertensive rats
(in mm Hg) in the case of administration of different doses of No. 4
(in mg/kg rat), measured on 10 consecutive days (6 hours after
application in each case).
Doses: a = 1.25 mg/kg; b = 2.5 mg/kg; c = 5.0 mg/kg; d = 10.0 mg/kg.

[4] = 5 mg/kg per os on 2nd day (half of original dose)
[5] = 5 mg/kg per os on 2nd day (half of original dose), 24 h

## CCOC(=O)N1C2CCCC1c1cc(NN)nnc1C2 (stereo not shown) [3-hydrazino-5,7-propano-5,6,7,8-tetrahydro-6-pyrido[4,3-c]pyridazine carboxylic acid ethyl ester]
[1]; awake genetically-hypertensive rats, compared with hydralazine and known compounds
  anti-hypertensive effectiveness and duration of action, in words: considerably higher anti-hypertensive effectiveness and longer duration of action than hydralazine

## CCOC(=O)N1CCc2nnc(NN)cc2C1 [Serial No. 1, 3-hydrazino-5,6,7,8-tetrahydro-6-pyrido[4,3-c]pyridazine carboxylic acid ethyl ester, reference compound]
[1]; [4]
  BP (% change), 2nd day, 6 h: -17.5%
[1]; 10 mg/kg per os
  BP (% change), 1st day, 6 h: -24.5%
[1]; 10 mg/kg per os, 24 h
  BP (% change), 1st day, 24 h: -6.0%
[1]
  relation between percentage change of the blood pressure (BP) and the applied dose: 0.404
  Th. E. (therapeutic effectiveness) [Serial No. 3 = 1.0]: 8.3
[1]; Table II, dose 21.05 μmole/kg
  BP (% change) 2nd day, 24 h: -8.5%
[2]
  LD50 at 336 h: 340 mg/kg

## CCOC(=O)N1CCc2nnc(NN)c(C)c2C1.Cl [Serial No. 2, 3-hydrazino-4-methyl-5,6,7,8-tetrahydro-6-pyrido[4,3-c]pyridazine carboxylic acid ethyl ester hydrochloride, reference compound]
[1]; 20 mg/kg per os
  BP (% change), 1st day, 6 h: -4.7%
[1]; 20 mg/kg per os, 24 h
  BP (% change), 1st day, 24 h: -1.0%
[1]; 20 mg/kg per os, 2nd day
  BP (% change), 2nd day, 6 h: -4.7%
[1]; 20 mg/kg per os, 2nd day, 24 h
  BP (% change) 2nd day, 24 h: -3.7%
[1]
  relation between percentage change of the blood pressure (BP) and the applied dose: 0.046
  Th. E. (therapeutic effectiveness) [Serial No. 3 = 1.0]: 0.9
[1]; Table II, dose 79.6 μmole/kg
  BP (% change) 2nd day, 24 h: -3.7%

## NNc1nncc2ccccc12 [Serial No. 3, 1-hydrazinophthalazine, reference compound]
[1]; 20 mg/kg per os
  BP (% change), 1st day, 6 h: -10.7%
[1]; 20 mg/kg per os, 24 h
  BP (% change), 1st day, 24 h: -1.5%
[1]; 20 mg/kg per os, 2nd day
  BP (% change), 2nd day, 6 h: -11.8%
[1]; 20 mg/kg per os, 2nd day, 24 h
  BP (% change) 2nd day, 24 h: -6.1%
[1]
  relation between percentage change of the blood pressure (BP) and the applied dose: 0.0488
  Th. E. (therapeutic effectiveness) [Serial No. 3 = 1.0]: 1.0
[1]; Table II, dose 125.0 μmole/kg
  BP (% change) 2nd day, 24 h: -6.1%

## CCOC(=O)N1C2CCCC1c1cc(NN)nnc1C2.O=C(O)/C=C/C(=O)O (stereo not shown) [Serial No. 4, 3-hydrazino-5,7-propano-5,6,7,8-tetrahydro-6-pyrido[4,3-c]pyridazine carboxylic acid ethyl ester fumarate]
[1]; 2.5 mg/kg per os
  BP (% change), 1st day, 6 h: -9.0%
[1]; 2.5 mg/kg per os, 24 h
  BP (% change), 1st day, 24 h: -11.8%
[1]; 2.5 mg/kg per os, 2nd day
  BP (% change), 2nd day, 6 h: -15.9%
[1]; 2.5 mg/kg per os, 2nd day, 24 h
  BP (% change) 2nd day, 24 h: -17.1%
[1]
  relation between percentage change of the blood pressure (BP) and the applied dose: 1.90
  Th. E. (therapeutic effectiveness) [Serial No. 3 = 1.0]: 38.9
[1]; Table II, dose 9.0 μmole/kg
  BP (% change) 2nd day, 24 h: -17.1%
[3]; day 1, a = 1.25 mg/kg oral
  Lowering of the blood pressure: 25.0 mm Hg
[3]; day 1, b = 2.5 mg/kg oral
  Lowering of the blood pressure: 35.0 mm Hg
[3]; day 1, c = 5.0 mg/kg oral
  Lowering of the blood pressure: 48.0 mm Hg
[3]; day 1, d = 10.0 mg/kg oral
  Lowering of the blood pressure: 58.0 mm Hg
[3]; day 2, a = 1.25 mg/kg oral
  Lowering of the blood pressure: 14.0 mm Hg
[3]; day 2, b = 2.5 mg/kg oral
  Lowering of the blood pressure: 59.0 mm Hg
[3]; day 2, c = 5.0 mg/kg oral
  Lowering of the blood pressure: 67.0 mm Hg
[3]; day 2, d = 10.0 mg/kg oral
  Lowering of the blood pressure: 77.5 mm Hg
[3]; day 3, a = 1.25 mg/kg oral
  Lowering of the blood pressure: 20.0 mm Hg
[3]; day 3, b = 2.5 mg/kg oral
  Lowering of the blood pressure: 44.0 mm Hg
[3]; day 3, c = 5.0 mg/kg oral
  Lowering of the blood pressure: 53.0 mm Hg
[3]; day 3, d = 10.0 mg/kg oral
  Lowering of the blood pressure: 66.0 mm Hg
[3]; day 4, a = 1.25 mg/kg oral
  Lowering of the blood pressure: 21.0 mm Hg
[3]; day 4, b = 2.5 mg/kg oral
  Lowering of the blood pressure: 67.0 mm Hg
[3]; day 4, c = 5.0 mg/kg oral
  Lowering of the blood pressure: 72.0 mm Hg
[3]; day 4, d = 10.0 mg/kg oral
  Lowering of the blood pressure: 74.0 mm Hg
[3]; day 7, a = 1.25 mg/kg oral
  Lowering of the blood pressure: 27.0 mm Hg
[3]; day 7, b = 2.5 mg/kg oral
  Lowering of the blood pressure: 53.0 mm Hg
[3]; day 7, c = 5.0 mg/kg oral
  Lowering of the blood pressure: 59.0 mm Hg
[3]; day 7, d = 10.0 mg/kg oral
  Lowering of the blood pressure: 69.0 mm Hg
[3]; day 8, a = 1.25 mg/kg oral
  Lowering of the blood pressure: 21.0 mm Hg
[3]; day 8, b = 2.5 mg/kg oral
  Lowering of the blood pressure: 66.0 mm Hg
[3]; day 8, c = 5.0 mg/kg oral
  Lowering of the blood pressure: 67.0 mm Hg
[3]; day 8, d = 10.0 mg/kg oral
  Lowering of the blood pressure: 66.0 mm Hg
[3]; day 9, b = 2.5 mg/kg oral
  Lowering of the blood pressure: 64.0 mm Hg
[3]; day 9, c = 5.0 mg/kg oral
  Lowering of the blood pressure: 63.0 mm Hg
[3]; day 9, d = 10.0 mg/kg oral
  Lowering of the blood pressure: 61.0 mm Hg
[3]; day 10, b = 2.5 mg/kg oral
  Lowering of the blood pressure: 71.0 mm Hg
[3]; day 10, c = 5.0 mg/kg oral
  Lowering of the blood pressure: 66.0 mm Hg
[3]; day 10, d = 10.0 mg/kg oral
  Lowering of the blood pressure: 63.0 mm Hg
[2]
  LD50 at 336 h: 400 mg/kg

## CC(C)=NNc1cc2c(nn1)CC1CCCC2N1C(=O)c1ccccc1 (stereo not shown) [Serial No. 5, 6-benzoyl-3-isopropylidenehydrazino-5,7-propano-5,6,7,8-tetrahydropyrido[4,3-c]pyridazine]
[1]; [4]
  BP (% change), 2nd day, 6 h: -15.2%
[1]; [5]
  BP (% change) 2nd day, 24 h: -12.8%
[1]; 10 mg/kg per os
  BP (% change), 1st day, 6 h: -20.1%
[1]; 10 mg/kg per os, 24 h
  BP (% change), 1st day, 24 h: -4.4%
[1]
  relation between percentage change of the blood pressure (BP) and the applied dose: 0.87
  Th. E. (therapeutic effectiveness) [Serial No. 3 = 1.0]: 17.8
[1]; Table II, dose 14.3 μmole/kg
  BP (% change) 2nd day, 24 h: -12.8%
[2]
  LD50 at 336 h: 510 mg/kg

## CCOC(=O)N1C2CCC1c1cc(NN=C(C)C)nnc1C2 (stereo not shown) [Serial No. 6, 3-isopropylidenehydrazino-5,7-ethano-5,6,7,8-tetrahydro-6-pyrido[4,3-c]-pyridazine carboxylic acid ethyl ester]
[1]; [4]
  BP (% change), 2nd day, 6 h: -21.5%
[1]; [5]
  BP (% change) 2nd day, 24 h: -23.1%
[1]; 10 mg/kg per os
  BP (% change), 1st day, 6 h: -23.1%
[1]; 10 mg/kg per os, 24 h
  BP (% change), 1st day, 24 h: -20.5%
[1]
  relation between percentage change of the blood pressure (BP) and the applied dose: 1.40
  Th. E. (therapeutic effectiveness) [Serial No. 3 = 1.0]: 28.7
[1]; Table II, dose 16.5 μmole/kg
  BP (% change) 2nd day, 24 h: -23.1%
[2]
  LD50 at 336 h: 300 mg/kg
